Test results: patent publication US20250154141A1 (University of Florida Research Foundation, Incorporated, priority 2021, published 2025)
Where two headings read alike, the source gives them in different places. Each block holds one compound with its values, some of them ahead of it.

Columns and labels:
Type in all cases: cell-based
[1] = tested on: human platelets; test: Platelet toxicity assay (MTS viability); settings: for IC50: human platelets, 48 h; for PLT/MOLT-4 IC50 Fold Change / Platelets/MOLT-4 IC50 Fold change: ratio of platelet IC50 to MOLT-4 IC50
Method: Platelet-rich plasma (PRP) was purchased from Life South Community Blood Centers (Gainesville, FL, USA). PRP was transferred into a 50 mL tube containing 5 mL of the acid citrate buffer (Cat. No. sc-214744, Santa Cruz Biotechnology). To prevent clotting, prostaglandin E1 (PGE1, Cat. No. sc-201223A, Santa Cruz Biotechnology, Dallas, TX, USA) and apyrase (Cat. No. A6237, Sigma-Aldrich, St. Louis, MO, USA) were added to final concentrations of […] and 0.2 U/mL, respectively. After gently mixing the solution, platelets were pelleted by centrifugation at 1200 g for 10 min without break. Pelleted platelets were gently washed without disturbing platelets using 2 mL of HEPES Tyrode's buffer (Cat. No. PY-921WB, Boston BioProducts, Ashland, MA, USA) containing […] PGE1 and 0.2 U/mL apyrase. After washing, pellets were gently suspended in 10 mL of HEPES Tyrode's buffer containing […] PGE1 and 0.2 U/mL apyrase. Then, the platelet number was counted using a HEMAVET 950FS hematology analyzer (Drew Scientific, Inc., Oxford, CT, USA). For viability assays, the platelet number was adjusted to 2×10^8/mL in HEPES Tyrode's buffer containing […] PGE1 and 0.2 U/mL apyrase. Each treatment was given in 2 mL of the platelet suspension in 15 mL polypropylene tubes. The tubes were placed on a rotating platform at room temperature, and the viability of platelets was measured after 48 h treatment by using the MTS reagent (Cat. No. G1111, Promega, Madison, WI, USA). The data were analyzed by the GraphPad Prism 7 software for the calculation of IC50 values.

[2] = tested on: MOLT-4; test: Cell viability assay (MTS) in MOLT-4 cells
Method: (§1) Acute lymphoblastic leukemia cells (MOLT-4 and RS4; 11) were incubated with increasing concentrations of Bcl-xL degraders for 48 h. Cell viability was measured by tetrazolium-based MTS assay.

[3] = tested on: RS4; 11; test: Cell viability assay (MTS) in RS4; 11 cells; design: Anti-Cancer Activity IC50 (48 hr) RS4; 11: scale not given here
Method: as §1

[4] = Homo sapiens, Platelet, Table 3, mean of two independent experiments in triplicates, read-out: Platelets 48 h IC50
[5] = Homo sapiens, Platelet, Table 4, read-out: Platelets 48 h IC50
[6] = Homo sapiens, Platelet, Table 6, 4 th time, read-out: Platelets 4 th time 48 h IC50
[7] = Homo sapiens, MOLT-4, Table 2, 48 hr, MTS, read-out: Anti-Cancer Activity IC50 (48 hr) MOLT-4
[8] = Homo sapiens, MOLT-4, Table 3, 48 h, mean of two independent experiments in triplicates, read-out: MOLT-4 48 h IC50
[9] = Homo sapiens, RS4-11, Table 2, 48 hr, MTS, read-out: Anti-Cancer Activity IC50 (48 hr) RS4, 11
[10] = Homo sapiens, RS4-11, Table 4, 48 h, read-out: RS4 48 h IC50
[11] = Homo sapiens, MOLT-4, Table 4, 48 h, read-out: MOLT-4 48 h IC50
[12] = Homo sapiens, MOLT-4, Table 2A, 48 hr, MTS, read-out: Anti-Cancer Activity IC50 (48 hr) MOLT-4
[13] = Homo sapiens, RS4-11, Table 2A, 48 hr, MTS, read-out: Anti-Cancer Activity IC50 (48 hr) RS4, 11

SMILES: Cc1ncsc1-c1ccc([C@H](C)NC(=O)[C@@H]2C[C@@H](O)CN2C(=O)[C@@H](NC(=O)CCCCCC(=O)N2CCN(CC[C@H](CSc3ccccc3)Nc3ccc(S(=O)(=O)NC(=O)c4ccc(N5CCN(CC6=C(c7ccc(Cl)cc7)CCC(C)(C)C6)CC5)cc4)cc3S(=O)(=O)C(F)(F)F)CC2)C(C)(C)C)cc1 [DT2216, reference compound]
IC50 ([1]; Table 4, read-out: Platelets 48 h IC50): > 10000 nM
PLT/MOLT-4 IC50 Fold Change ([1]; Table 4): >150
IC50 ([2]; Table 4, 48 h, read-out: MOLT-4 48 h IC50): 50 to 80 nM
IC50 ([3]; Table 4, 48 h, read-out: RS4 48 h IC50): 180 to 230 nM

SMILES: Cc1ncsc1-c1ccc([C@H](C)NC(=O)[C@@H]2C[C@@H](O)CN2C(=O)[C@@H](NC(=O)CN2CCN(CC(=O)N3CCN(C[C@]4(C)CCC(c5ccc(Cl)cc5)=C(CN5CCN(c6ccc(C(=O)NS(=O)(=O)c7ccc(N[C@H](CCN8C[C@H]9C[C@@H]8CO9)CSc8ccccc8)c(S(=O)(=O)C(F)(F)F)c7)cc6)CC5)C4)CC3)CC2)C(C)(C)C)cc1 [Compound 105]
IC50 ([1]; Platelet, Table 4, read-out: Platelets 48 h IC50): 777 nM
IC50 ([2]; Homo sapiens, MOLT-4, 48 h, read-out: Anti-Cancer Activity IC50 (48 hr) MOLT-4): < 20 nM
IC50 ([2]; Homo sapiens, MOLT-4, 48 h, read-out: MOLT-4 48 h IC50): 4 nM
IC50 ([3]; Homo sapiens, RS4-11, 48 h, read-out: Anti-Cancer Activity IC50 (48 hr) RS4, 11): < 20 nM
IC50 ([3]; Homo sapiens, RS4-11, 48 h, read-out: RS4 48 h IC50): 3 nM

IC50 [2, 7]: < 20 nM
IC50 [2, 8]: 2.3 nM
IC50 [3, 9]: < 20 nM
IC50 [3, 10]: 1.6 nM
SMILES: Cc1ncsc1-c1ccc([C@H](C)NC(=O)[C@@H]2C[C@@H](O)CN2C(=O)[C@@H](NC(=O)CCCCCCC(=O)N2CCN(C[C@]3(C)CCC(c4ccc(Cl)cc4)=C(CN4CCN(c5ccc(C(=O)NS(=O)(=O)c6ccc(N[C@H](CCN7C[C@H]8C[C@@H]7CO8)CSc7ccccc7)c(S(=O)(=O)C(F)(F)F)c6)cc5)CC4)C3)CC2)C(C)(C)C)cc1 [Compound 66]
IC50 [1, 4]: 853 nM
IC50 [1, 5]: 853 nM
IC50 [1, 6]: 853 nM
Platelets/MOLT-4 IC50 Fold change ([1]; Table 3): 370
PLT/MOLT-4 IC50 Fold Change ([1]; Table 4): 370
Platelets/MOLT-4 IC50 Fold change ([1]; Table 6): 370

IC50 [2, 7]: < 20 nM
IC50 [2, 8]: 17.6 nM
Anti-Cancer Activity IC50 (48 hr) RS4; 11 ([3]; Table 2, 48 hr, MTS): + ++
SMILES: Cc1ncsc1-c1ccc([C@H](C)NC(=O)[C@@H]2C[C@@H](O)CN2C(=O)[C@@H](NC(=O)CCCCCCC(=O)N2CCN(CC3(C)CCC(c4ccc(Cl)cc4)=C(CN4CCN(c5ccc(C(=O)NS(=O)(=O)c6ccc(N[C@H](CCN7CCCC7)CSc7ccccc7)c([N+](=O)[O-])c6)cc5)CC4)C3)CC2)C(C)(C)C)cc1 (stereo partly drawn) [Compound 38, (2S,4R)-1-((2S)-2-(8-(4-((4′-chloro-4-methyl-6-((4-(4-(((3-nitro-4-(((R)-1-(phenylthio)-4-(pyrrolidin-1-yl)butan-2-yl)amino)phenyl)sulfonyl)carbamoyl)phenyl)piperazin-1-yl)methyl)-2,3,4,5-tetrahydro-[1,1′-biphenyl]-4-yl)methyl)piperazin-1-yl)-8-oxooctanamido)-3,3-dimethylbutanoyl)-4-hydroxy-N—((S)-1-(4-(4-methylthiazol-5-yl)phenyl)ethyl)pyrrolidine-2-carboxamide]
IC50 [1, 4]: 3000 nM
Platelets/MOLT-4 IC50 Fold change ([1]; Table 3): 170

IC50 [2, 7]: < 20 nM
IC50 [2, 11]: 9.6 nM
IC50 [3, 9]: 20 to 100 nM
IC50 [3, 10]: 44.9 nM
SMILES: Cc1ncsc1-c1ccc([C@H](C)NC(=O)[C@@H]2C[C@@H](O)CN2C(=O)[C@@H](NC(=O)CCCCCNC(=O)c2ccc(N3CCN(CC4(C)CCC(c5ccc(Cl)cc5)=C(CN5CCN(c6ccc(C(=O)NS(=O)(=O)c7ccc(N[C@H](CCN8CCOCC8)CSc8ccccc8)c(S(=O)(=O)C(F)(F)F)c7)cc6)CC5)C4)CC3)nc2)C(C)(C)C)cc1 (stereo partly drawn) [Compound 3]
IC50 [1, 5]: 4900 nM
PLT/MOLT-4 IC50 Fold Change ([1]; Table 4): 510

IC50 [2, 11]: 6.9 nM
IC50 [3, 10]: 5.8 nM
SMILES: Cc1ncsc1-c1ccc([C@H](C)NC(=O)[C@@H]2C[C@@H](O)CN2C(=O)[C@@H](NC(=O)CCCCCCC(=O)N2CCN(C[C@]3(C)CCC(c4ccc(Cl)cc4)=C(CN4CCN(c5ccc(C(=O)NS(=O)(=O)c6ccc(N[C@H](CCN7CCOCC7)CSc7ccccc7)c(S(=O)(=O)C(F)(F)F)c6)cc5)CC4)C3)CC2)C(C)(C)C)cc1 [PZ753B, reference compound]
IC50 [1, 5]: 1050 nM
PLT/MOLT-4 IC50 Fold Change ([1]; Table 4): 152

IC50 [2, 8]: 220 nM
IC50 [3, 10]: 38 nM
SMILES: CC1(C)CCC(c2ccc(Cl)cc2)=C(CN2CCN(c3ccc(C(=O)NS(=O)(=O)c4ccc(N[C@H](CCN5CCOCC5)CSc5ccccc5)c(S(=O)(=O)C(F)(F)F)c4)cc3)CC2)C1 [ABT-263, navitoclax, reference compound]
IC50 [1, 4]: 312 nM
IC50 [1, 5]: 260 nM
IC50 [1, 6]: 223 nM
Platelets/MOLT-4 IC50 Fold change ([1]; Table 3): 1.4
Platelets/MOLT-4 IC50 Fold change ([1]; Table 6): 1

IC50 [2, 7]: < 20 nM
IC50 ([2]; Homo sapiens, MOLT-4, Table 6, 48 h, read-out: MOLT-4 48 h IC50): 2.9 nM
IC50 [3, 9]: < 20 nM
IC50 ([3]; Homo sapiens, RS4-11, Table 6, 48 h, read-out: RS4 48 h IC50): 4.7 nM
SMILES: Cc1ncsc1-c1ccc([C@H](C)NC(=O)[C@@H]2C[C@@H](O)CN2C(=O)[C@@H](NC(=O)CCCCCCC(=O)N2CCN(CC3(C)CCC(c4ccc(Cl)cc4)=C(CN4CCN(c5ccc(C(=O)NS(=O)(=O)c6ccc(N[C@H](CCN7C[C@@H]8C[C@H]7CO8)CSc7ccccc7)c(S(=O)(=O)C(F)(F)F)c6)cc5)CC4)C3)CC2)C(C)(C)C)cc1 (stereo partly drawn) [compound 64]
IC50 [1, 6]: 884 nM

IC50 [2, 12]: < 20 nM
IC50 [3, 13]: < 20 nM
SMILES: Cc1ncsc1-c1ccc([C@H](C)NC(=O)[C@@H]2C[C@@H](O)CN2C(=O)[C@@H](NC(=O)COCCCNC(=O)c2ccc(N3CCN(C[C@]4(C)CCC(c5ccc(Cl)cc5)=C(CN5CCN(c6ccc(C(=O)NS(=O)(=O)c7ccc(N[C@H](CCN8CCCOCC8)CSc8ccccc8)c(S(=O)(=O)C(F)(F)F)c7)cc6)CC5)C4)CC3)nn2)C(C)(C)C)cc1 [Compound 111]

IC50 [2, 12]: 20 to 100 nM
IC50 [3, 13]: < 20 nM
SMILES: Cc1ncsc1-c1ccc([C@H](C)NC(=O)[C@@H]2C[C@@H](O)CN2C(=O)[C@@H](NC(=O)CCCCS(=O)(=O)N2CCN(C[C@]3(C)CCC(c4ccc(Cl)cc4)=C(CN4CCN(c5ccc(C(=O)NS(=O)(=O)c6ccc(N[C@H](CCN7CCCOCC7)CSc7ccccc7)c(S(=O)(=O)C(F)(F)F)c6)cc5)CC4)C3)CC2)C(C)(C)C)cc1 [Compound 110]

IC50 [2, 7]: 20 to 100 nM
IC50 [3, 9]: 20 to 100 nM
SMILES: Cc1ncsc1-c1ccc([C@H](C)NC(=O)[C@@H]2C[C@@H](O)CN2C(=O)[C@@H](NC(=O)CCCNC(=O)c2ccc(N3CCN(CCN(C)CC4(C)CCC(c5ccc(Cl)cc5)=C(CN5CCN(c6ccc(C(=O)NS(=O)(=O)c7ccc(N[C@H](CCN8CCOCC8)CSc8ccccc8)c(S(=O)(=O)C(F)(F)F)c7)cc6)CC5)C4)CC3)nc2)C(C)(C)C)cc1 (stereo partly drawn) [Compound 8]

IC50 [2, 12]: < 20 nM
IC50 [3, 13]: < 20 nM
SMILES: Cc1ncsc1-c1ccc([C@H](C)NC(=O)[C@@H]2C[C@@H](O)CN2C(=O)[C@@H](NC(=O)CCCCC(=O)N2CCC(C3CCN(C[C@]4(C)CCC(c5ccc(Cl)cc5)=C(CN5CCN(c6ccc(C(=O)NS(=O)(=O)c7ccc(N[C@H](CCN8CCCOCC8)CSc8ccccc8)c(S(=O)(=O)C(F)(F)F)c7)cc6)CC5)C4)CC3)CC2)C(C)(C)C)cc1 [Compound 116]
